Measurements: ChEMBL document CHEMBL1140563, “Redefining the structure-activity relationships of 2,6-methano-3-benzazocines. 5. Opioid receptor binding properties of N-((4'-phenyl)-phenethyl) analogues of 8-CAC” (Bioorg Med Chem Lett, 2007)
Active and inactive are the calls of the source. The calls are words filed in the database; no cut-off is given here.

Assays:
[1] = molecular target: T1, Kappa-type opioid receptor (Homo sapiens, UniProt P41145); experiment: Antagonist activity at human kappa opioid receptor expressed in CHO cell membrane assessed as inhibition of U50,488 induced [35S]GTPgammaS binding; assay type: functional, cell membranes
Mu-type opioid receptor [2] = molecular target: T2, Mu-type opioid receptor (Homo sapiens, UniProt P35372); experiment: Antagonist activity at human mu opioid receptor expressed in CHO cell membrane assessed as inhibition of DAMGO induced [35S]GTP-gamma-S binding at 10 uM; assay type: functional, cell membranes
[3] = molecular target: T1, Kappa-type opioid receptor; experiment: Agonist activity at human kappa opioid receptor expressed in CHO cell membrane by [35S]GTP-gamma-S binding assay; assay type: functional, cell membranes
[4] = molecular target: T3, Delta-type opioid receptor (Homo sapiens, UniProt P41143); experiment: Antagonist activity at human delta opioid receptor expressed in CHO cell membrane assessed as inhibition of SNC80 induced [35S]GTPgammaS binding; assay type: functional, cell membranes
Mu-type opioid receptor [5] = molecular target: T2, Mu-type opioid receptor; experiment: Agonist activity at human mu opioid receptor expressed in CHO cell membrane by [35S]GTPgammaS binding assay; assay type: functional, cell membranes
[6] = molecular target: T3, Delta-type opioid receptor; experiment: Agonist activity at human delta opioid receptor expressed in CHO cell membrane by [35S]GTP-gamma-S binding assay; assay type: functional, cell membranes
Mu-type opioid receptor [7] = molecular target: T2, Mu-type opioid receptor; experiment: Antagonist activity at human mu opioid receptor expressed in CHO cell membrane assessed as inhibition of DAMGO induced [35S]GTP-gamma-S binding; assay type: functional, cell membranes
Mu-type opioid receptor [8] = molecular target: T2, Mu-type opioid receptor; experiment: Displacement of [3H]DAMGO from mu opioid receptor expressed in CHO cells; assay type: cell-based
[9] = molecular target: T1, Kappa-type opioid receptor; experiment: biochemical; assay type: cell-based, CHO
Description: Displacement of [3H]U-69593 from kappa opioid receptor expressed in CHO cells

[10] = molecular target: T3, Delta-type opioid receptor; experiment: Displacement of [3H]naltrindole from delta opioid receptor expressed in CHO cells; assay type: cell-based

T1 sequence (P41145 whole entry): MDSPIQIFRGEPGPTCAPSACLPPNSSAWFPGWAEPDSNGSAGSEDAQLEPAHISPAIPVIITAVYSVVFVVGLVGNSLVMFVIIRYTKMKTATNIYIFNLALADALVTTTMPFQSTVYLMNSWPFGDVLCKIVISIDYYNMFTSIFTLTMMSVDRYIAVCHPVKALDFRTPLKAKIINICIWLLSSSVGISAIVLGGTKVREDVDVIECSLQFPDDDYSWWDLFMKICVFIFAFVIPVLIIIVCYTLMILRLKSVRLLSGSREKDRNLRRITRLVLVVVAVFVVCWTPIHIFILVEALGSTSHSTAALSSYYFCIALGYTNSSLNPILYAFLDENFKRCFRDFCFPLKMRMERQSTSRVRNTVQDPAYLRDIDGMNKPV
T2 sequence (P35372 whole entry): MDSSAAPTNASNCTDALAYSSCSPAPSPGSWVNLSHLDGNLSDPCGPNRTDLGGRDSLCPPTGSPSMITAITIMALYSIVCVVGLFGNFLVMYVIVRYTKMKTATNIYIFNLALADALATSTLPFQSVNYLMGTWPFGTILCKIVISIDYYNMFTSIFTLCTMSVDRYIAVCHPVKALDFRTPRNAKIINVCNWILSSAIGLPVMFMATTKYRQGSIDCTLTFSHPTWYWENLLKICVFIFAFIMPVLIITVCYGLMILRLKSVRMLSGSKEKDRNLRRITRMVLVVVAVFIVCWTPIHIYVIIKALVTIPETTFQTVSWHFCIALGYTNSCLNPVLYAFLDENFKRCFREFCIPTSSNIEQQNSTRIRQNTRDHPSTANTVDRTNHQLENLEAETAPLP
T3 sequence (P41143 whole entry): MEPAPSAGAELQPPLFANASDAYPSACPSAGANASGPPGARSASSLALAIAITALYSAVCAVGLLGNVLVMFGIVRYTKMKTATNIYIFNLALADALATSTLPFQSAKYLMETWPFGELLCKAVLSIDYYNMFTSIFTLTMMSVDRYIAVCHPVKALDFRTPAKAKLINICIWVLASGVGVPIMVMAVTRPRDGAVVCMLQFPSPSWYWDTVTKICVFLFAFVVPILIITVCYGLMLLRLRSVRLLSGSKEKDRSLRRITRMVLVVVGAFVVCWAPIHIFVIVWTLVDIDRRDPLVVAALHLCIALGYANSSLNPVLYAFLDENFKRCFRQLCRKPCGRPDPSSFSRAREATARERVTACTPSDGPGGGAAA

Row | SMILES | Activity [1] | Imax (Mu-type opioid receptor [2]) [%] | EC50 [3] [nM] | Emax [3] [%] | Activity [4] | EC50 (Mu-type opioid receptor [5]) [nM] | Emax (Mu-type opioid receptor [5]) [%] | EC50 [6] [nM] | Emax [6] [%] | Activity (Mu-type opioid receptor [7]) | Ki (Mu-type opioid receptor [8]) [nM] | Ki [9] [nM] | Ki [10] [nM] | IC50 (Mu-type opioid receptor [7]) [nM] | Imax (Mu-type opioid receptor [7]) [%]
1 | C[C@H]1C2Cc3ccc(C(=O)NCCc4ccc(-c5ccc(Cl)cc5)cc4)cc3[C@@]1(C)CCN2CC1CC1 | inactive | 71 | 6.4 | 96 | inactive | 2.5 | 31 | 2 | 45 | inactive |  |  |  |  | 
2 | C[C@H]1C2Cc3ccc(C(=O)NCCc4ccc(Br)cc4)cc3[C@@]1(C)CCN2CC1CC1 | inactive |  | 20 | 110 | inactive | 16 | 73 | 20 | 120 | inactive | 2.4 | 0.38 | 2.5 |  | 
3 | C[C@H]1C2Cc3ccc(C(=O)NCCCc4cccc5ccccc45)cc3[C@@]1(C)CCN2CC1CC1 |  |  |  |  |  |  |  |  |  |  | 2.4 | 1.9 | 18 |  | 
4 | C[C@H]1C2Cc3ccc(C(=O)NCc4ccc5ccccc5c4)cc3[C@@]1(C)CCN2CC1CC1 |  |  |  |  |  |  |  |  |  |  | 1.3 | 19 | 31 |  | 
5 | C[C@H]1C2Cc3ccc(C(=O)NCCc4cccc(Br)c4)cc3[C@@]1(C)CCN2CC1CC1 | inactive |  | 4.6 | 110 | inactive | 5.6 | 24 | 14 | 85 |  | 0.35 | 0.063 | 3.5 | 230 | 85
6 | C[C@H]1C2Cc3ccc(C(=O)NCCc4cccc(-c5ccccc5)c4)cc3[C@@]1(C)CCN2CC1CC1 | inactive | 72 | 12 | 95 | inactive | 6.8 | 41 | 18 | 43 | inactive | 0.95 |  | 5.9 |  | 
7 | COc1ccc(-c2ccc(CCNC(=O)c3ccc4c(c3)[C@@]3(C)CCN(CC5CC5)C(C4)[C@@H]3C)cc2)cc1 | inactive |  | 1.1 | 98 | inactive | 11 | 27 | 0.68 | 70 |  |  |  |  | 24 | 82
8 | C[C@H]1C2Cc3ccc(C(=O)NCCc4ccccc4Br)cc3[C@@]1(C)CCN2CC1CC1 |  |  |  |  |  |  |  |  |  |  | 4 | 19 | 150 |  | 
9 | C[C@H]1[C@H]2Cc3ccc(O)cc3[C@@]1(C)CCN2CC1CC1 |  |  |  |  |  |  |  |  |  |  |  | 0.07 | 2 |  | 
10 | C[C@H]1C2Cc3ccc(C(=O)NCCCc4ccc5ccccc5c4)cc3[C@@]1(C)CCN2CC1CC1 | inactive |  | 6.3 | 98 |  | 24 | 31 |  |  |  | 1.9 | 0.18 | 18 | 320 | 78
11 | C[C@H]1C2Cc3ccc(C(=O)NCCc4ccc5ccccc5c4)cc3[C@@]1(C)CCN2CC1CC1 |  |  |  |  |  |  |  |  |  |  | 0.18 | 0.2 | 0.9 |  | 
12 | C[C@H]1C2Cc3ccc(C(=O)NCCc4ccccc4-c4ccccc4)cc3[C@@]1(C)CCN2CC1CC1 |  | 73 | 42 | 97 |  | 12 | 36 |  |  |  | 6.7 | 2.4 | 21 |  | 
13 | C[C@H]1C2Cc3ccc(C(=O)NCCc4ccc(-c5ccc(Cl)c(Cl)c5)cc4)cc3[C@@]1(C)CCN2CC1CC1 |  |  |  |  |  |  |  |  |  |  | 0.98 | 1.1 | 2.5 |  | 
14 | C[C@H]1C2Cc3ccc(C(=O)NCc4cccc5ccccc45)cc3[C@@]1(C)CCN2CC1CC1 |  |  |  |  |  |  |  |  |  |  | 2.5 | 18 | 52 |  | 
15 | C[C@H]1C2Cc3ccc(C(=O)NCCc4cccc5ccccc45)cc3[C@@]1(C)CCN2CC1CC1 |  |  |  |  |  |  |  |  |  |  | 4.2 | 2.4 | 24 |  | 
